Data set [1] has as its system S-180 sarcoma. Nature of the data set: In vivo tumor growth inhibition, S-180 sarcoma in mice.
A short description of data set [2]: Body weight and deaths of S-180 bearing mice. Format: in vivo.
The test system of another data set is tumor cell. Nature of the data set: Tumor cell apoptosis (further studies). It counts as cell-based.
The test system of another data set is tumor cell cycle. The experiment in a line: Tumor cell cycle arrest (further studies). Format: cell-based. Conditions: significantly dose-dependent.
The subject of data set [3] is S-180 sarcoma. Nature of the data set: In vivo tumor growth inhibition, S-180 sarcoma in mice. The conditions noted are these: for activity against mice S180 sarcoma (in words): i.p. injection. The method, then: S-180 sarcoma developed for 7-11 days and in good growth trend was homogenated into cell suspension. The cell suspension was inoculated subcutaneously into right armpit of female KM mice (18˜22 g) (about 1.0−2.5×10^6 cells/mouse). After 24 h, the mice were grouped in random with compounds administrated by i.p. injection. From the next day on, the mice were given serial dosages. After treatment, animals were killed, and solid tumors were removed and weighed after the body weight were weighed. The inhibition rate was calculated as follows, and T-test was carried out: [(Average tumor weight of NS group−Average tumor weight of test group)/Average tumor weight of NS group]×100%.

In another data set the test system is H22 hepatoma. The experiment in a line: In vivo tumor inhibition, H22 hepatoma.
For the next data set, the system named is DNA. The experiment in a line: DNA double strand break (further studies).
Data set [4] concerns human hepatocellular carcinoma BEL-7402. The experiment in a line: Growth inhibition of BEL-7402 cells (MTT or SRB assay). Format: cell-based. Conditions: read-out: Growth inhibition effect to BEL-7402 cell strain. The procedure: (§1) The procedure of MTT assay was as follows: appropriate amount of cells in log phase were seeded in 96-well plates (6000 cells/well, 15000 cells/well, 90ul/well) according to the growing rate. After cultured for 24 h, cells were exposed to serial dilutions of drugs in triplicate (10 ul/well). In addition, wells without cell, and wells without cell but with serial dilutions of drugs in case of using a colored-drug were set for zeroing. Then, the cells were cultured in 5% CO2 humidified incubator at 37° C. for 48 h. After treatment of drugs for 48 h, 20ul MTT (Sigma) which was diluted by normal saline to the concentration of 5 mg/ml was added to each well, 50ul/well 10%SDS-5% isobutanol-0.01% mol/LHCl was added after 4 h. After cultured overnight, absorbance was measured at 570 nm using a multiwell spectrophotometer. The inhibition effect of the compounds in test (percentage of growth inhibition) was calculated for each well: % inhibition=(OD570control cells−OD570treated cells)/OD570control cells×100%.
(§2) The procedure of SRB assay was as follows: appropriate amount of cells in log phase were seeded in 96-well plates according to the growing rate (90 ul/well). After cultured for 24 h, cells were exposed to serial dilutions of drugs in triplicate (10 ul/well). In addition, control wells of normal saline in corresponding concentrations and zeroing wells without cell were set. The cells were incubated in 5% CO2 humidified incubator at 37° C. After 72 h, the medium was removed and cells were fixed with cold 10% trichloric acid (TCA) at 4° C. for 1 h. The plates were washed with distilled water 5 times, and stained in room temperature with 4 mg/ml SRB (Sigma, diluted with 1% glacial acetic acid, 100 ul/well) for 15 minutes after air drying. SRB was then washed with 1% acetic acid 5 times. Plates were dried, followed by adding 150 ul/well Tris solution. Absorbance was measured at […] using a multiwell spectrophotometer. The inhibition effect of the compounds in test (percentage of growth inhibition) was calculated for each well: % inhibition=(A540control cells−A540treated cells)/A540control cells×100%.
(§3) The methods used were MTT assay or SRB assay.
(§4) The cell lines used were mice leukemia cell P388, human leukemia cell MOLT-4, human lung adenocarcinoma cell A-549, human gastric adenocarcinoma SGC-7901, human hepatocellular carcinoma BEL-7402 and human embryonal fibroblast WI-38 (commerially available from ATCC).
(§5) The exposure time to compounds was 48 h-72 h.
(In general: Tetrazolium assays rely on reduction of a dye to a coloured formazan, in cell work by metabolically active cells.)

Data set [5] deals with human gastric adenocarcinoma SGC-7901. Nature of the data set: Growth inhibition of SGC-7901 cells (MTT or SRB assay). Format: cell-based. The conditions noted are these: read-out: Growth inhibition effect to SGC-7901 cell strain. The method, then: as §1, §2, §3, §4, §5
In data set [6] the test system is human lung adenocarcinoma cell A-549. The experiment in a line: Growth inhibition of A-549 cells, SRB protein staining assay. It counts as cell-based. Conditions: read-out: Growth inhibition effect to A-549 cell strain; for inhibition at 100 µM: A549, 10^−4 M; for inhibition at 10 µM: A549, 10^−5 M; for inhibition at 1 µM: A549, 10^−6 M; for inhibition at 0.1 µM: A549, 10^−7 M; for inhibition at 0.01 µM: A549, 10^−8 M. The method, then: (§6) The cell growth inhibition of mice leukemia cell P388 was evaluated by MTT (microculture tetrozolium) assay, while the cell growth inhibition of human lung adenocarcinoma cell A-549 was evaluated by SRB (Sulforhodamine B) protein staining assay.
as §2, §4, §5

For data set [7], the system named is human leukemia cell MOLT-4. The experiment in a line: Growth inhibition of MOLT-4 cells (MTT or SRB assay). It counts as cell-based. The conditions noted are these: read-out: Growth inhibition effect to MOLT-4 cell strain. The procedure: as §1, §2, §3, §4, §5
Another data set concerns mice leukemia cell P388. Nature of the data set: Growth inhibition of P388 cells, MTT assay. Format: cell-based. The conditions noted are these: Mus musculus, read-out: Growth inhibition effect to P388 cell strain; for inhibition at 100 µM: 10^−4 M; for inhibition at 10 µM: 10^−5 M; for inhibition at 1 µM: 10^−6 M; for inhibition at 0.1 µM: 10^−7 M; for inhibition at 0.01 µM: 10^−8 M. The method, then:
as §6, §1, §4, §5

The mark [8] stands for this setting: 75 mg/kg i.v, injected twice (Day 1 and Day 4).

Entries after “also recorded” stand apart in the source; their conditions may differ.

Results on four compounds are retold here after patent US7541463B2, “Sulfur-containing naphthalimide derivatives” (East China University of Science and Technology, priority 2003, dated 2009).

With `O=c1[nH]cc(F)c(=O)[nH]1` [5-FU], in the data set on S-180 sarcoma [1] (setting [8]), the “Tumor growth inhibition %” value is recorded as 96.9% and the “Weight of tumor (g) mean ± SD” value amounted to 0.05 ± 0.04 g. In addition, the “Weight of mice (g) Day 7” value in [2] (setting [8]) came to 20.7 g.
Turning to `CN(C)CCN1C(=O)c2cccc3cc(N)cc(c23)C1=O` [Amonafide, N-(β-dimethylaminoethyl)-3-amino-1,8-naphthalimide, reference compound], in the data set with tumor cell, the tumor cell apoptosis entry was “trigger tumor cell apoptosis”. In addition, in the data set with tumor cell cycle, the “tumor cell cycle arrest” value is “arrest tumor cell cycle in G2/M phase”. The “Weight of tumor (g) mean ± SD” value with S-180 sarcoma [3] (S-180 sarcoma, 5 mg/kg i.p) worked out at 1.12 ± 0.35 g; in the data set on S-180 sarcoma [1] (10 mg/kg i.p) it was 1.37 ± 0.26 g. In addition, the “activity against mice S180 sarcoma (in words)” value in the data set on S-180 sarcoma [3] is reported as “not potent”. In addition, the “activity in parallel experiments (in words)” value in the data set with H22 hepatoma (compared with C16) is recorded as “not as active”. Moreover, the “Tumor growth inhibition %” value was 30.9% in the data set with S-180 sarcoma [1] (5 mg/kg i.p) and 15.4% with S-180 sarcoma [1] (10 mg/kg i.p). Besides, the “Weight of mice (g) Day 7” value in data set [2] (5 mg/kg i.p) was found to be 32.0 g; in [2] (10 mg/kg i.p), 31.3 g. In addition, in the data set with DNA, the “DNA double strand break” value is given as “induce the broken of DNA double strand”.
Regarding `CN(C)CCN1C(=O)c2cccc3c2c(cc2nc(-c4cccc([N+](=O)[O-])c4)sc23)C1=O` [compound 7, N-(N′,N′-dimethylaminoethyl)-4H, 6H-9-m-nitrophenyl-benzo[de]thiazol[5,4-g]isoquinoline4,6-diketone], the melting point (in general, the temperature, or range, at which the solid turns liquid) was 229 to 230 °C. Moreover, in [4] (10^−4 M), the inhibition (as a rule, the relative decrease from the control value, in per cent) at 100 µM came out at 96.9%. For the same compound, the inhibition at 10 µM in data set [4] (10^−5 M) stood at 95.8%. In data set [4] (10^−6 M), the inhibition at 1 µM is 80.6%. For the same compound, the inhibition at 0.1 µM in data set [4] (10^−7 M) was determined as 33.1%. Besides, the inhibition at 0.01 µM in [4] (10^−8 M) is 17%. Besides, the inhibition at 100 µM in [5] (10^−4 M) was 96.4%. Moreover, the inhibition at 10 µM in data set [5] (10^−5 M) came to 95.1%. For the same compound, the inhibition at 1 µM in data set [5] (10^−6 M) is 67%. The inhibition at 0.1 µM in data set [5] (10^−7 M) worked out at 6.9%. In [5] (10^−8 M), the inhibition at 0.01 µM amounted to 3.4%. Also, the “activity against mice S180 sarcoma (in words)” value with S-180 sarcoma [3] (listed as C7) is listed as “not potent; also recorded: active against S180 sarcoma, but weaker than C16”. Moreover, in data set [6], the inhibition at 100 µM worked out at 89.1%, the inhibition at 10 µM came out at 89%, the inhibition at 1 µM stood at 72.3% and the inhibition at 0.1 µM is 71.3%. For the same compound, in data set [6], the inhibition at 0.01 µM worked out at 52%. Also, in [7] (10^−4 M), the inhibition at 100 µM was found to be 95.1%. For the same compound, the inhibition at 10 µM in [7] (10^−5 M) came out at 99.2%. Moreover, in data set [7] (10^−6 M), the inhibition at 1 µM was 100%. The inhibition at 0.1 µM in [7] (10^−7 M) came to 13.3%. In addition, the inhibition at 0.01 µM in data set [7] (10^−8 M) turned out to be 0%. In the data set on mice leukemia cell P388, the inhibition at 100 µM turned out to be 98.7%, the inhibition at 10 µM was 74.6%, the inhibition at 1 µM stood at 47.9% and the inhibition at 0.1 µM came out at 15.8%. In addition, the inhibition at 0.01 µM in the data set on mice leukemia cell P388 is 18%.
As to `CN(C)CCN1C(=O)c2cccc3c2c(cc2c4ccccc4sc32)C1=O` [compound 16, N-(N′,N′-dimethylaminoethyl)benzo[b]thieno[2,1-c]naphthalimide], in the data set on tumor cell, the tumor cell apoptosis result is “trigger tumor cell apoptosis”. Also, the “tumor cell cycle arrest” value in the data set on tumor cell cycle is “arrest tumor cell cycle in G2/M phase”. Besides, the “Weight of tumor (g) mean ± SD” value in the data set with S-180 sarcoma [3] (S-180 sarcoma, 12.5 mg/kg i.p) is 1.14 ± 0.29 g; in the data set on S-180 sarcoma [3] (S-180 sarcoma, 25 mg/kg i.p), 0.46 ± 0.24 g; in the data set with S-180 sarcoma [1] (50 mg/kg i.p), 0.08 ± 0.04 g. Besides, the “Tumor growth inhibition %” value was determined as 71.6% with S-180 sarcoma [3] (S-180 sarcoma, 25 mg/kg i.p); 29.6% in the data set on S-180 sarcoma [1] (12.5 mg/kg i.p); 95.6% in the data set on S-180 sarcoma [1] (50 mg/kg i.p). Also, the “activity against mice S180 sarcoma (in words)” value in the data set with S-180 sarcoma [3] is listed as “active”. Also, the “tumor inhibition (in words)” value with H22 hepatoma (7.5 mg/kg) is listed as “not active”. Moreover, the tumor inhibition rate is on record as 51.0% with H22 hepatoma (i.p. 15 mg/kg) and 72.6% in the data set with H22 hepatoma (i.p. 30 mg/kg). Further, the inhibition at 100 µM in data set [6] stood at 97.1%; in the data set on mice leukemia cell P388 it was 100%. Besides, the inhibition at 10 µM in data set [6] came to 96.6%; with mice leukemia cell P388 it was 95.9%. The inhibition at 1 µM stood at 85.2% in [6] and 68.2% with mice leukemia cell P388. The inhibition at 0.1 µM came to 72.2% in [6] and 21.4% with mice leukemia cell P388. The inhibition at 0.01 µM in data set [6] amounted to 55.3%; with mice leukemia cell P388, 13.8%. The “Weight of mice (g) Day 7” value in [2] (12.5 mg/kg i.p) is 26.9 g; in data set [2] (25 mg/kg i.p), 18.6 g; in [2] (50 mg/kg i.p), 12.9 g. Further, the “DNA double strand break” value with DNA is “induce the broken of DNA double strand”.
